Patent publication US6974804B2, “Esters” (Unilever Home & Personal Care USA, division of Conopco, Inc., priority 2000, dated 2005)

Tests used:
Type in all cases: physicochemical
[1] = Gelling of water-immiscible cosmetic liquids in 96 well glass micro-titre plate; parameters: key: gel; g4: gel after overnight (18 hrs) storage at 4° C.; g22: gel after overnight (18 hrs) storage at 22° C.; sg: soft gel; sg22: soft gel after overnight (18 hrs) storage at 22° C.; solution; *: the test at 4° C. was not carried out; conditions: for gelling of ISA: 150° C. 2.5 hours, cooled to ambient
Description: In this Example, various samples of esterified cellobiose prepared as in Example 1 or 2 above, were used to gel water-immiscible cosmetic liquids, in accordance with the procedure given below, in which a large number of gels can be prepared simultaneously.
The samples were tested in a 96 well (8×12 rows) glass micro-titre plate. […] About 0.01 or 0.02 g of each esterified cellobiose material was placed into 8 consecutive wells in a single row, so that each well contained approximately 5% or 10% of the cellobiose ester. The balance in each well comprised the cosmetic liquid by addition of approximately 0.2 g of the respective liquid to each cell. A glass lid was placed on top of the plate. The plate was carefully placed in a thermostatically controlled fan-assisted oven set at 150° C. for 2.5 hours. The plate was removed from the oven and allowed to cool naturally to ambient laboratory temperature. The contents of the wells were assessed at the end of the cooling period, by visual inspection and by poking the contents of each well with a micro-spatula. The plates were stored at […] for 18 hours and the contents inspected, and further stored for 18 hours at 4° C. and inspected for a third time. The results obtained in the tests are summarised in Table 5 below, in which the legend is as follows: […]

[2] = Light transmission at 580 nm (% T); conditions: 580 nm
Description: The translucency of a composition may be measured by placing a sample of standardised thickness in the light path of a spectrophotometer and measuring transmittance, as a percentage of light transmitted in the absence of the gel.
This test was carried out using a dual-beam spectrophotometer. The sample of composition was poured hot into a 4.5 ml cuvette made of poly(methyl-methacrylate) (PMMA) and allowed to cool to an ambient temperature of 20-25° C. Such a cuvette gives a 1 cm thickness of composition. […] A transmittence measured at any temperature in the range from 20-25° C. is usually adequately accurate, but measurement is made at 22° C. if more precision is required.

[3] = Visual assessment score (clarity of gel in 1 cm cuvette); conditions: for Clarity Visual (assessment score): scale −12 to 8
Description: A gel contained within a 1 cm thick cuvette was placed directly on to a sheet of white paper on which 21 sets of figures where printed in black. The size and thickness of the figures varied systematically and were numbered from −12 (the largest, thickest set) through 0 to 8 (the smallest thinnest set) The score given to each gel was the highest numbered set which could be read clearly through the gel, the higher the number, the higher the clarity.

[4] = Stability testing of gels: crystal growth visible by eye on storage at 37° C.
Description: Gels were made up using 10% structurant in a 60:40 mixture of Hydrogenated Polyisobutene (Panalene L14E):DC245. The gels, in sealed glass bottles, were left to stand for 18 hrs at room temperature, after which they were transferred to an oven thermostatically controlled to 37° C. Samples were checked periodically for signs of crystal growth visible by eye. REF1 is cellobiose octanonanoate.
Gels were made up and tested in accordance with the procedure in Example 6, as such or modified by employing a weight ratio of 9% of REF1 and 1% of an additional structurant as specified in Table 13 below.
The test procedure of Example 9 was repeated, but using ACB structurant REF2 alone as the structurant or to which a CHME structurant was added.

[5] = 5% cellobiose ester in Fluid AP
[6] = 5% cellobiose ester in Mineral oil
[7] = 5% cellobiose ester in Polydecene
[8] = 10% cellobiose ester in Fluid AP
[9] = 10% cellobiose ester in Mineral oil
[10] = 10% cellobiose ester in Polydecene
[11] = 9% REF2 and 1% of the specified ester in 60:40 hydrogenated polydecene:DC245
[12] = 60:40 hydrogenated polydecene:DC245 gelled with 9% REF2 and 1% of the specified cellobiose ester
[13] = 9% REF4 plus 1% of the named material
[14] = 9% REF4 plus 1% of the named material in 60:40 hydrogenated polydecene:DC245

Compound	gelling of DC556 ([1]; 5% cellobiose ester in DC556)	gelling of Fluid AP [1, 5]	gelling of IPM ([1]; 5% cellobiose ester in IPM)	gelling of ISA ([1]; 5% cellobiose ester in ISA)	gelling of Mineral oil [1, 6]	gelling of Polydecene [1, 7]	gelling of DC556 ([1]; 10% cellobiose ester in DC556)	gelling of Fluid AP [1, 8]	gelling of IPM ([1]; 10% cellobiose ester in IPM)	gelling of ISA ([1]; 10% cellobiose ester in ISA)	gelling of Mineral oil [1, 9]	gelling of Polydecene [1, 10]	Clarity % T [2, 11]	Clarity Visual (assessment score) [3, 11]	Clarity Visual (appearance) [3, 12]	Clarity % T [2, 13]	Clarity Visual (appearance) [3, 14]	Clarity Visual (assessment score) [3, 13]	further results
CCCCCCCCC(=O)OCC1OC(OC2C(COC(=O)CCCCCCCC)OC(OC(=O)c3ccc4ccccc4c3)C(OC(=O)CCCCCCCC)C2OC(=O)CCCCCCCC)C(OC(=O)CCCCCCCC)C(OC(=O)CCCCCCCC)C1OC(=O)CCCCCCCC (mixture of isomers) [Ex 1.4]	gel	gel	sol	g22	g22	g22	gel	gel	sol	g22	g22	gel	38%	slight haze >8	transparent/	–	–	–	gelling of Finsolv TN ([1]; 5% cellobiose ester in Finsolv TN): sol; gelling of Finsolv TN ([1]; 10% cellobiose ester in Finsolv TN): sol
CCCCCCCCCCCCCCCC(=O)OC1OC(COC(=O)CCCCCCCC)C(OC2OC(COC(=O)CCCCCCCC)C(OC(=O)CCCCCCCC)C(OC(=O)CCCCCCCC)C2OC(=O)CCCCCCCC)C(OC(=O)CCCCCCCC)C1OC(=O)CCCCCCCC (mixture of isomers) [Ex 1.9]	gel	gel	g4	g22	g22	gel	–	–	g4	–	–	–	45%	> 8	transparent	–	–	–	–
CCCCCCCCCC(=O)OCC1OC(OC2C(COC(=O)CCCCCCCCC)OC(OC(=O)c3ccccc3)C(OC(=O)CCCCCCCCC)C2OC(=O)CCCCCCCCC)C(OC(=O)CCCCCCCCC)C(OC(=O)CCCCCCCCC)C1OC(=O)CCCCCCCCC (mixture of isomers) [Ex 2.1]	gel	gel	–	gel	gel	gel	gel	gel	–	gel	gel	gel	–	–	–	9.53%	translucent	−1	–
CCCCCCCCCC(=O)OCC1OC(OC2C(COC(=O)CCCCCCCCC)OC(OC(=O)c3ccc4ccccc4c3)C(OC(=O)CCCCCCCCC)C2OC(=O)CCCCCCCCC)C(OC(=O)CCCCCCCCC)C(OC(=O)CCCCCCCCC)C1OC(=O)CCCCCCCCC (mixture of isomers) [Ex 2.7]	gel	gel	–	gel	gel	gel	gel	gel	–	gel	gel	gel	–	–	–	8.7%	translucent	0	–
CCCCCCCCCC(=O)OCC1OC(OC2C(COC(=O)CCCCCCCCC)OC(OC(=O)c3ccc(-c4ccccc4)cc3)C(OC(=O)CCCCCCCCC)C2OC(=O)CCCCCCCCC)C(OC(=O)CCCCCCCCC)C(OC(=O)CCCCCCCCC)C1OC(=O)CCCCCCCCC (mixture of isomers) [Ex 2.9]	gel	gel	–	g22	sg	gel	gel	gel	–	gel	gel	gel	–	–	–	7.7%	translucent	−3	–
CCCCCCCCCC(=O)OCC1OC(OC2C(COC(=O)CCCCCCCCC)OC(OC(=O)C3CCCCC3)C(OC(=O)CCCCCCCCC)C2OC(=O)CCCCCCCCC)C(OC(=O)CCCCCCCCC)C(OC(=O)CCCCCCCCC)C1OC(=O)CCCCCCCCC (mixture of isomers) [Ex 2.10]	gel	gel	–	g22	gel	gel	gel	gel	–	gel	gel	gel	–	–	–	5.9%	translucent	−5	–
CCCCCCCCC(=O)OCC1OC(O)C(OC(=O)CCCCCCCC)C(OC(=O)CCCCCCCC)C1OC1OC(COC(=O)CCCCCCCC)C(OC(=O)CCCCCCCC)C(OC(=O)CCCCCCCC)C1OC(=O)CCCCCCCC (mixture of isomers) [REF 5, reference compound]	–	–	–	–	–	–	–	–	–	–	–	–	31%	translucent 4	transparent/	–	–	–	–
CCCCCCCCCC(=O)OCC1OC(O)C(OC(=O)CCCCCCCCC)C(OC(=O)CCCCCCCCC)C1OC1OC(COC(=O)CCCCCCCCC)C(OC(=O)CCCCCCCCC)C(OC(=O)CCCCCCCCC)C1OC(=O)CCCCCCCCC (mixture of isomers) [REF 6, reference compound]	–	–	–	–	–	–	–	–	–	–	–	–	–	–	–	0.8%	opaque	< −12	–
cellobiose heptanonanoate monocyclohexanoate [Ex 1.10]	gel	gel	sol	g22	gel	gel	gel	gel	g4	gel	gel	gel	42%	slight haze 6	transparent/	–	–	–	Visual ([3]; gel in 60:40 w/w Silkflo 364:DC245, score scale −12 to 8): >8; Observations ([4]; 9% of REF1 and 1% of additional structurant, after 12 days at 37° C.): No crystal growth after 12 days at 37 °C; Observation ([4]; 10% structurant in 60:40 Panalene L14E:DC245, after 17 days at 37° C.): No crystals after 17 days.; Observation ([4]; REF2 to which the CHME structurant was added, after 11 days at 37° C.): Some needle crystals on surface after 11; Observation ([4]; REF2 to which the CHME structurant was added, after 12 days at 37° C.): Some needle crystals in gel bulk after 12
